Reference: DBAASP
Converted amounts (≈) assume the structure as drawn. One block for each molecule: values may come before it.

Legend:
Assay in all cases: ≥ marks a high value that may be exact or a test limit, other limits are often not marked, values filed in µg/mL are converted to µM
[1] = tested on: Bacillus subtilis IFO 3336
[2] = tested on: Escherichia coli IFO 3301
[3] = tested on: Aeromonas salmonicida NCIMB 1102
[4] = tested on: Bacillus subtilis IAM 1026
[5] = tested on: Escherichia coli JCM 1649
[6] = tested on: Photobacterium damselae subsp. piscicida Sp 9587
Salmonella typhimurium = tested on: Salmonella typhimurium
[7] = tested on: Shewanella putrefaciens IAM 1509
[8] = tested on: Staphylococcus aureus IAM 1011
[9] = tested on: Vibrio anguillarum NCIMB 829
[10] = tested on: Vibrio parahaemolyticus Vp+1
[11] = tested on: Pseudomonas aeruginosa PAK
Staphylococcus aureus = tested on: Staphylococcus aureus
[12] = tested on: Streptococcus gordonii Challis DL1
[13] = tested on: Streptococcus mitis ATCC 903
[14] = tested on: Streptococcus mutans UA159
[15] = tested on: Streptococcus sanguinis NY101
[16] = tested on: Bacillus subtilis DSM 347
Escherichia coli BL21AI = tested on: Escherichia coli BL21AI
Escherichia coli DC2 = tested on: Escherichia coli DC2
[17] = tested on: Escherichia coli DSM 1103
[18] = tested on: Klebsiella pneumoniae DSM 681
[19] = tested on: Micrococcus luteus ATCC 10240
[20] = tested on: Actinomyces naeslundii ATCC 12104
[21] = tested on: Actinomyces viscosus ATCC 15987
[22] = tested on: Bacillus subtilis ATCC 6633
[23] = tested on: Candida albicans ATCC 10231
[24] = tested on: Candida parapsilosis ATCC 22019
Cryptococcus neoformans = tested on: Cryptococcus neoformans
[25] = tested on: Enterococcus faecalis ATCC 29212
[26] = tested on: Escherichia coli ATCC 9637
[27] = tested on: Klebsiella pneumoniae ATCC 27736
[28] = tested on: Lacticaseibacillus casei ATCC 393
[29] = tested on: Lactobacillus acidophilus ATCC 4356
[30] = tested on: Limosilactobacillus fermentum ATCC 9338
[31] = tested on: Pseudomonas aeruginosa ATCC BAA-427
Sporothrix schenckii = tested on: Sporothrix schenckii
[32] = tested on: Staphylococcus aureus ATCC 25923
[33] = tested on: Staphylococcus aureus ATCC 29213
[34] = tested on: Staphylococcus aureus ATCC 33592
[35] = tested on: Staphylococcus aureus ATCC 700698
[36] = tested on: Staphylococcus aureus ATCC 700699
[37] = tested on: Staphylococcus aureus ATCC BAA-44
[38] = tested on: Streptococcus gordonii ATCC 10558
[39] = tested on: Streptococcus sanguinis ATCC 10556
[40] = tested on: Streptococcus sobrinus ATCC 6715
[41] = tested on: Erwinia amylovora PMV 6076
[42] = tested on: Pseudomonas syringae pv. actinidiae Psa3700.1.1
[43] = tested on: Pseudomonas syringae pv. syringae EPS 94
[44] = tested on: Xanthomonas arboricola pv. pruni CFBP 5563
[45] = tested on: Xanthomonas campestris pv. Vesicatoria 2133-2
[46] = tested on: Xanthomonas fragariae Xf349-9A

Compound: NC(N)=NCCC[C@H](NC(=O)[C@H](Cc1cnc[nH]1)NC(=O)[C@H](CCCN=C(N)N)NC(=O)[C@H](Cc1cnc[nH]1)NC(=O)[C@H](CCCN=C(N)N)NC(=O)[C@H](Cc1cnc[nH]1)NC(=O)[C@@H](N)CCCN=C(N)N)C(=O)N[C@@H](Cc1cnc[nH]1)C(=O)O [RHRHRHRH]
MIC [1]: 8.39 µM (≈ 10 µg/mL)
MIC [2]: 8.39 µM (≈ 10 µg/mL)

Compound: CC[C@H](C)[C@H](NC(=O)[C@H](Cc1ccc(O)cc1)NC(=O)[C@@H](NC(=O)[C@@H]1CCCN1C(=O)[C@H](CCCN=C(N)N)NC(=O)[C@H](CC(N)=O)NC(=O)[C@H](CC(N)=O)NC(=O)CNC(C)=O)C(C)C)C(=O)N1CCC[C@H]1C(=O)N[C@@H](CCCN=C(N)N)C(=O)N1CCC[C@H]1C(=O)N[C@@H](CCCN=C(N)N)C(=O)N1CCC[C@H]1C(=O)N1CCC[C@H]1C(=O)N[C@@H](Cc1cnc[nH]1)C(=O)N1CCC[C@H]1C(=O)N[C@@H](CCCN=C(N)N)C(=O)N[C@@H](CC(C)C)C(N)=O [GNNRPVYIPRPRPPHPRL]
MIC [16]: ≥ 58.5 µM
MIC (Escherichia coli BL21AI): 1.49 µM (≈ 3.25 µg/mL)
MIC (Escherichia coli DC2): 1.83 µM (≈ 3.97 µg/mL)
MIC [17]: 1.83 µM (≈ 3.97 µg/mL)
MIC [18]: 1.83 µM (≈ 3.97 µg/mL)
MIC [19]: 0.913 µM (≈ 1.99 µg/mL)

Compound: CSCC[C@H](NC(=O)[C@@H](NC(=O)[C@H](Cc1ccc(O)cc1)NC(=O)[C@H](CO)NC(=O)[C@H](CS)NC(=O)[C@@H](N)Cc1ccc(O)cc1)[C@@H](C)O)C(=O)N[C@@H](CCC(=O)O)C(=O)N[C@@H](C)C(N)=O [YCSYTMEA]
MIC [41]: ≥ 50 µM
MIC [42]: ≥ 50 µM
MIC [43]: ≥ 50 µM
MIC [44]: ≥ 50 µM
MIC [45]: ≥ 50 µM
MIC [46]: ≥ 50 µM

Continued, in another order:

MIC [3]: ≥ 32.4 µM
MIC [4]: 2.03 µM (≈ 3.13 µg/mL)
MIC [5]: ≥ 32.4 µM
MIC [6]: 4.05 µM (≈ 6.25 µg/mL)
MIC (Salmonella typhimurium): ≥ 32.4 µM
MIC [7]: 4.05 µM (≈ 6.25 µg/mL)
MIC [8]: 2.03 µM (≈ 3.13 µg/mL)
MIC [9]: 8.09 µM (≈ 12.5 µg/mL)
Compound: CC[C@H](C)[C@H](NC(=O)CNC(=O)CNC(=O)[C@@H](NC(=O)[C@@H](N)Cc1ccccc1)[C@@H](C)CC)C(=O)N[C@H](C(=O)N[C@@H](CO)C(=O)N[C@@H](Cc1ccccc1)C(=O)N[C@@H](Cc1ccccc1)C(=O)N[C@@H](CCCCN)C(=O)N[C@@H](CCCN=C(N)N)C(=O)N[C@@H](CC(C)C)C(=O)N[C@@H](Cc1ccccc1)C(=O)O)[C@@H](C)CC [FIGGIISFFKRLF]
MIC [10]: 16.2 µM (≈ 25 µg/mL)

MIC [11]: 20.3 µM (≈ 62.5 µg/mL)
MIC (Staphylococcus aureus): 5.21 µM (≈ 16 µg/mL)
MIC [12]: 20.3 µM (≈ 62.5 µg/mL)
MIC [13]: 10.4 µM (≈ 32 µg/mL)
MIC [14]: 1.3 µM (≈ 4 µg/mL)
MIC [15]: 5.21 µM (≈ 16 µg/mL)
Compound: CC[C@H](C)[C@H](NC(=O)[C@H](Cc1ccccc1)NC(=O)[C@H](Cc1cnc[nH]1)NC(=O)[C@H](CCCCN)NC(=O)[C@@H](NC(=O)[C@@H](N)Cc1ccccc1)[C@@H](C)CC)C(=O)N[C@@H](Cc1cnc[nH]1)C(=O)N[C@@H](CCCN=C(N)N)C(=O)N[C@@H](Cc1ccccc1)C(=O)NCC(=O)NCC(=O)NCC(=O)N[C@@H](Cc1ccccc1)C(=O)N[C@@H](CCCCN)C(=O)N[C@@H](CCCCN)C(=O)N[C@@H](Cc1ccccc1)C(=O)N[C@@H](Cc1c[nH]c2ccccc12)C(=O)N[C@@H](CCCCN)C(=O)N[C@@H](Cc1c[nH]c2ccccc12)C(=O)N[C@@H](Cc1ccccc1)C(=O)N[C@@H](CCCN=C(N)N)C(=O)N[C@@H](CCCN=C(N)N)C(=O)N[C@@H](Cc1ccccc1)C(N)=O [FIKHFIHRFGGGFKKFWKWFRRF]

MIC [20]: 2.77 µM (≈ 8 µg/mL)
MIC [21]: 2.77 µM (≈ 8 µg/mL)
MIC [22]: 6 µM (≈ 17.4 µg/mL)
MIC [23]: 6.8 µM (≈ 19.7 µg/mL)
MIC [24]: 3 µM (≈ 8.68 µg/mL)
MIC (Cryptococcus neoformans): 3 µM (≈ 8.68 µg/mL)
MIC [25]: 3.91 µM (≈ 11.3 µg/mL)
MIC [26]: 3.4 µM (≈ 9.83 µg/mL)
MIC [27]: 3 µM (≈ 8.68 µg/mL)
MIC [28]: 1.38 µM (≈ 4 µg/mL)
MIC [29]: 1.96 µM (≈ 5.66 µg/mL)
MIC [30]: 1.38 µM (≈ 4 µg/mL)
MIC [31]: 6.8 µM (≈ 19.7 µg/mL)
MIC (Sporothrix schenckii): 13.6 µM (≈ 39.3 µg/mL)
MIC [32]: 3 µM (≈ 8.68 µg/mL)
MIC [33]: 1.6 µM (≈ 4.63 µg/mL)
MIC [34]: 1.6 µM (≈ 4.63 µg/mL)
MIC [35]: 3 µM (≈ 8.68 µg/mL)
MIC [36]: 1.6 µM (≈ 4.63 µg/mL)
MIC [37]: 1.6 µM (≈ 4.63 µg/mL)
MIC [38]: 2.77 µM (≈ 8 µg/mL)
MIC [14]: 1.38 µM (≈ 4 µg/mL)
MIC [39]: 1.96 µM (≈ 5.66 µg/mL)
MIC [40]: 1.38 µM (≈ 4 µg/mL)
Compound: CC[C@H](C)[C@H](NC(=O)[C@H](C)NC(=O)[C@H](CCCCN)NC(=O)CNC(=O)[C@H](C)NC(=O)[C@H](Cc1cnc[nH]1)NC(=O)[C@@H](NC(=O)[C@H](C)NC(=O)CNC(=O)[C@H](CCCCN)NC(=O)[C@@H](NC(=O)[C@H](CC(C)C)NC(=O)[C@H](Cc1c[nH]c2ccccc12)NC(=O)CNC(=O)[C@H](Cc1ccccc1)NC(=O)[C@@H](N)Cc1ccccc1)[C@@H](C)CC)[C@@H](C)CC)C(=O)N[C@@H](Cc1cnc[nH]1)C(=O)NCC(=O)N[C@@H](CC(C)C)C(=O)N[C@H](C(=O)N[C@@H](Cc1cnc[nH]1)C(=O)N[C@@H](CCCN=C(N)N)C(=O)N[C@@H](CCCN=C(N)N)C(=O)N[C@@H](CCCN=C(N)N)C(=O)N[C@@H](Cc1cnc[nH]1)C(=O)O)[C@@H](C)CC [FFGWLIKGAIHAGKAIHGLIHRRRH]
